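How tested: cells in 96-well plates exposed to compound for 48 hours at five concentrations. GI50 is the concentration that inhibits growth by half.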 Activity calls are given as the source filed them. Cut-off read from the data, not from the text of the source: active = GI50 up to about 1.1 µM and inactive = higher.
How the values were obtained:
Assay in all cases: NCI-60 cell line screen, 48 h
[1] = system: 786-0
[2] = system: A498
[3] = system: EKVX
[4] = system: HOP-62
[5] = system: M14
[6] = system: MCF7
[7] = system: MDA-N
[8] = system: MOLT-4
[9] = system: Malme-3M
[10] = system: OVCAR-3
[11] = system: OVCAR-5
[12] = system: OVCAR-8
[13] = system: SK-MEL-28
[14] = system: SK-MEL-5
[15] = system: SN12C
[16] = system: SNB-75
[17] = system: SR
[18] = system: SW-620
[19] = system: UACC-257
[20] = system: LOX IMVI

Compound	GI50 [1]	GI50 [2]	GI50 [3]	GI50 [4]	GI50 [5]	GI50 [6]	GI50 [7]	GI50 [8]	GI50 [9]	GI50 [10]	GI50 [11]	GI50 [12]	GI50 [13]	GI50 [14]	GI50 [15]	GI50 [16]	GI50 [17]	GI50 [18]	GI50 [19]	GI50 [20]
C[NH+]1[C@@H](Cc2ccccc2)C(=O)O[B-]1(F)c1ccccc1 (stereo partly specified)	> 100 µM (inactive)	> 100 µM (inactive)	> 100 µM (inactive)	> 100 µM (inactive)	> 100 µM (inactive)	> 100 µM (inactive)	> 100 µM (inactive)	> 100 µM (inactive)	> 100 µM (inactive)	> 100 µM (inactive)	> 100 µM (inactive)	> 100 µM (inactive)	> 100 µM (inactive)	> 100 µM (inactive)	> 100 µM (inactive)	> 100 µM (inactive)	> 100 µM (inactive)	> 100 µM (inactive)	> 100 µM (inactive)	
COc1ccc(-c2c(C#N)c(N)n(C3OCC(O)C(O)C3O)c(=S)c2C#N)cc1 (stereo unspecified)	> 100 µM (inactive)	> 100 µM (inactive)		> 100 µM (inactive)	> 100 µM (inactive)	> 100 µM (inactive)	> 100 µM (inactive)	> 100 µM (inactive)	> 100 µM (inactive)	> 100 µM (inactive)	> 100 µM (inactive)	> 100 µM (inactive)	> 100 µM (inactive)	> 100 µM (inactive)	> 100 µM (inactive)	> 100 µM (inactive)	> 100 µM (inactive)	> 100 µM (inactive)		> 100 µM (inactive)
CC(=O)OCC1(CNc2nc(N)ncc2C#N)CC(CCc2ccccc2)C1 (stereo unspecified)	40.4 µM (inactive)	21.9 µM (inactive)	6.01 µM (inactive)	14.4 µM (inactive)		12 µM (inactive)	28.6 µM (inactive)	2.89 µM (inactive)	> 100 µM (inactive)		> 100 µM (inactive)	50.2 µM (inactive)	> 100 µM (inactive)	1.62 µM (inactive)	> 100 µM (inactive)	27.4 µM (inactive)	4.8 µM (inactive)	> 100 µM (inactive)	> 100 µM (inactive)	4.58 µM (inactive)
NC(=O)c1csc(C2OC(CO)C(O)C2O)n1 (stereo unspecified)	21.8 µM (inactive)	785 µM (inactive)	543 µM (inactive)	90.8 µM (inactive)	6.84 µM (inactive)	31.4 µM (inactive)	35.1 µM (inactive)	5.56 µM (inactive)	1640 µM (inactive)	19.6 µM (inactive)	436 µM (inactive)	26.6 µM (inactive)		96.8 µM (inactive)	379 µM (inactive)		> 31.6 µM (inactive)	13.8 µM (inactive)	4400 µM (inactive)	267 µM (inactive)
O=C(O)c1c(CC(Cc2ccc3c(c2)CCC3)C(=O)O)ccc2c1CCC2 (stereo unspecified)	> 100 µM (inactive)	> 100 µM (inactive)	> 100 µM (inactive)	> 100 µM (inactive)	> 100 µM (inactive)	> 100 µM (inactive)	> 100 µM (inactive)	> 100 µM (inactive)	> 100 µM (inactive)	> 100 µM (inactive)	> 100 µM (inactive)	> 100 µM (inactive)	> 100 µM (inactive)	> 100 µM (inactive)	> 100 µM (inactive)		> 100 µM (inactive)	> 100 µM (inactive)	> 100 µM (inactive)	> 100 µM (inactive)
CCN(CC)CCCNc1n[n+]([O-])c2ccccc2[n+]1[O-]	8.69 µM (inactive)	3.62 µM (inactive)			22.4 µM (inactive)	3.92 µM (inactive)	11.9 µM (inactive)	2.73 µM (inactive)	11.3 µM (inactive)	> 10 µM (inactive)	20.5 µM (inactive)	8.51 µM (inactive)	63.1 µM (inactive)	1.52 µM (inactive)	4.68 µM (inactive)	23.1 µM (inactive)	13.7 µM (inactive)	15.1 µM (inactive)	14.2 µM (inactive)	
CC1=CC(=O)c2ccc(C)cc2C1=O [CHIMAPHILIN]	19.7 µM (inactive)	17.6 µM (inactive)	7.1 µM (inactive)	17.4 µM (inactive)	16.3 µM (inactive)	3.05 µM (inactive)	0.394 µM (active)	2.41 µM (inactive)		11.8 µM (inactive)	19.9 µM (inactive)	10.6 µM (inactive)	6.82 µM (inactive)	3.82 µM (inactive)	19.1 µM (inactive)	> 10 µM (inactive)	3.4 µM (inactive)	11.8 µM (inactive)	12.9 µM (inactive)	5.09 µM (inactive)
Cc1cc(S(=O)(=O)Nc2nc3ccccc3nc2-c2cccc([N+](=O)[O-])c2)c(S)cc1Cl	23.8 µM (inactive)	14.4 µM (inactive)	22.1 µM (inactive)	20.2 µM (inactive)	17.2 µM (inactive)	24 µM (inactive)	20.5 µM (inactive)	22.6 µM (inactive)	18.5 µM (inactive)	15.9 µM (inactive)	36.6 µM (inactive)	34.5 µM (inactive)	15.8 µM (inactive)	15 µM (inactive)	30 µM (inactive)		20.8 µM (inactive)		18.1 µM (inactive)	
O=C1NC2(CCNCC2)Oc2ccccc21	> 100 µM (inactive)		> 100 µM (inactive)	> 100 µM (inactive)	> 100 µM (inactive)	> 100 µM (inactive)	> 100 µM (inactive)	> 100 µM (inactive)	> 100 µM (inactive)	> 100 µM (inactive)	> 100 µM (inactive)	> 100 µM (inactive)	> 100 µM (inactive)	> 100 µM (inactive)	> 100 µM (inactive)	> 100 µM (inactive)	> 100 µM (inactive)	> 100 µM (inactive)	> 100 µM (inactive)	> 100 µM (inactive)
CC(=O)Nc1ccccc1S(=O)(=O)c1c(-c2c(C)c(Cl)c(C)c(Cl)c2C)noc1C	18.4 µM (inactive)	57 µM (inactive)	48.9 µM (inactive)	19.7 µM (inactive)	74.3 µM (inactive)	35.1 µM (inactive)	37.2 µM (inactive)	24.2 µM (inactive)	> 100 µM (inactive)	57.8 µM (inactive)	> 100 µM (inactive)	37 µM (inactive)	> 100 µM (inactive)	> 100 µM (inactive)	30.3 µM (inactive)	12.4 µM (inactive)	16.1 µM (inactive)	> 100 µM (inactive)	60.7 µM (inactive)	
O=c1oc2ccc(Cl)cc2cc1-c1cn2cc(Cl)ccc2n1	> 42.4 µM (inactive)		> 37.3 µM (inactive)	> 69.3 µM (inactive)	4.46 µM (inactive)	1.64 µM (inactive)	0.368 µM (active)	6.46 µM (inactive)	0.698 µM (active)	5.3 µM (inactive)	> 100 µM (inactive)	> 57 µM (inactive)	> 100 µM (inactive)	> 100 µM (inactive)	> 89.1 µM (inactive)	> 100 µM (inactive)	0.473 µM (active)	> 32.3 µM (inactive)	> 100 µM (inactive)	> 28.2 µM (inactive)
CC(C)C(O)(C(=O)OCN1C(=O)C2C3C=CC(C2C1=O)C1C2C(=O)N(COC(=O)C(O)(C(C)C)C(C)O)C(=O)C2C31)C(C)O (stereo unspecified)	> 100 µM (inactive)	39.7 µM (inactive)	> 100 µM (inactive)	> 100 µM (inactive)	> 100 µM (inactive)	> 100 µM (inactive)	> 100 µM (inactive)	> 100 µM (inactive)	> 100 µM (inactive)	> 100 µM (inactive)	> 100 µM (inactive)	> 100 µM (inactive)	> 100 µM (inactive)	> 100 µM (inactive)	> 100 µM (inactive)	0.0275 µM (active)	> 100 µM (inactive)	> 100 µM (inactive)		
O=C(CNc1cccc(Cl)c1)Nn1c(-c2ccccc2)nc2ccccc2c1=O	2.77 µM (inactive)	19.5 µM (inactive)	17.9 µM (inactive)	14.1 µM (inactive)	2.09 µM (inactive)	2.04 µM (inactive)	9.59 µM (inactive)	1.35 µM (inactive)		7.1 µM (inactive)	18.6 µM (inactive)	4.34 µM (inactive)	8.02 µM (inactive)	1.53 µM (inactive)	4.13 µM (inactive)	3.61 µM (inactive)	4.6 µM (inactive)	2.47 µM (inactive)	14 µM (inactive)	1.21 µM (inactive)
COC(=O)Cn1c(=O)oc2nc(-c3ccccc3)cc(C(F)(F)F)c21	> 100 µM (inactive)	> 100 µM (inactive)	70.6 µM (inactive)	> 100 µM (inactive)	> 100 µM (inactive)	> 100 µM (inactive)	> 100 µM (inactive)	23.6 µM (inactive)		75.3 µM (inactive)	> 100 µM (inactive)	18.3 µM (inactive)	24.4 µM (inactive)	26.7 µM (inactive)	56.6 µM (inactive)	> 100 µM (inactive)	62.2 µM (inactive)	73.1 µM (inactive)	95.9 µM (inactive)	
COc1cc2c(c3nc4ccccc4nc13)-c1ccc(SC)c(=O)cc1[C@@H](NC(C)=O)CC2	0.115 µM (active)	0.82 µM (active)	0.0525 µM (active)	0.405 µM (active)	0.0617 µM (active)	0.0485 µM (active)	0.0188 µM (active)	0.0438 µM (active)	0.0106 µM (active)	0.0545 µM (active)		0.0815 µM (active)	> 56.4 µM (inactive)	0.0347 µM (active)	0.0968 µM (active)	0.0313 µM (active)	0.0158 µM (active)	0.0752 µM (active)	0.069 µM (active)	0.0542 µM (active)

From ChEMBL document CHEMBL1201862, “PubChem BioAssay data set” (2004)
